# Source: patent EP0987025A1, “Pharmaceitical composition or composition package containing a pyrimidine nucleoside analogue and a purine nucleoside analogue” (priority 1998, dated 2000)
# Read-outs that look alike come from different tables or passages of the source.
# Columns and labels:
# Format in all cases: in vivo, C57BL/6 mice
# LP-BM5 [1] = settings: for Lymphad. (% inh.) / Splenom. (% inh.): about 4 months from infection
# From the text: LP-BM5 virus was provided by Robert Yetter (Veternas Administration Hospital, Baltimore, MD) and was maintained in a persistently infected SC- 1 cell line as described (Hosier D.E., Yetter R.A., Morse H.C. III, "Functional T lymphocytes are required for a murine retrovirus induced immunodeficiency disease (MAIDS)", J. Exp. Med. 1987; 165:1737-42). C57BL/6 female mice were purchased from Nossan, Milan, Italy and were used at 5 weeks of age. Animals were infected by means of two successive intraperitoneal injections at 24-hr intervals. In the experiments reported three different virus preparations were used.
# Mice were housed at 22±1°C with a 12-hr light-dark cycle, 60±5% humidity, and 12 air changes/hr.
# First, the efficacy of 2-fluoro-ara-AMP (F-araAMP, Fludara) in inhibiting murine AIDS (MAIDS), a disease characterized by a lymphoproliferative disorder (lymphadenopathy and splenomegaly), associated with severe immunodeficiency and hypergammaglobulinemia, was evaluated. The disease develops in some strains of mice (C57BL/6) that are infected with a murine leukemia virus mixture termed LP-BM5. In the first preliminary experiments (after about 4 months from infection) LP-BMS infected animals were treated with three different concentrations of F-ara-AMP: 0.065 mg/mouse, 0.325 mg/mouse, 0.650 mg/mouse. The animals of each group were treated intraperitoneally for 3 days a week and for 3 weeks. At the end of the treatment animals were killed and splenomegaly, lymphadenopathy and hypergammaglobulinemia were evaluated.
# Infected mice after 7 weeks from infection were treated intraperitoneally with Fludara as follows: • 1. 0.65 mg/mouse once a day for 4 days a week (total dose 7.8 mg/mouse); • 2. 0.65 mg/mouse twice a day for 5 days a week (total dose 19.5 mg/mouse); • 3. […]
# mitochondrial DNA = test: Determination of mitochondrial DNA content; settings: treatment C; vs. untreated mice; 10 weeks after infection; not statistically significant
# From the text: To detect the mitochondrial DNA a 1544-bp mitochondrial DNA fragment was used as a probe. The mitochondrial DNA probe (kindly provided by Dr. Gadaleta, University of Bari, Italy) spans the region from nucleotide 2578 to 4122 in the complete human mitochondrial DNA. As a result of the high homology between human and mouse mitochondrial DNA this probe recognizes human and mouse sequences equally well (data not shown) (Bibb M.J., Van Etten R.A., Wright C.T., Walberg M.W., Clayton D.A., "Sequence and gene organization of mouse mitochondrial DNA.", Cell 1981; 26:167-80).
# Total cellular DNA (4 µg) was digested with the restriction enzyme BamHI (Boehringer, Milan, Italy), analyzed on 0.8% agarose gel, blotted and hybridized with the 1544-bp mitochondrial probe (Brandi G., Casabianca A., Schiavano G.F., et al., "Efficacy and toxicity of long-term administration of 2',3'-dideoxycytidine in the LP-BM5 murine induced immunodeficiency model.", Antiviral Chem. Chemother. 1995; 6:153-61.). […]
# Finally, the long term toxicity of Fludara in MAIDS was evaluated. […] Thus, the mitochondrial DNA content in Fludara treated mice was evaluated and only treatment C causes a slight reduction of mitochondrial DNA content (20% vs. untreated mice) although this was not statistically significant. […] The relative amount of mt DNA was determined as described in experimental procedures. […]
# LP-BM5 [2] = test: Histopathological examination of liver and lymph node sections; settings: in drinking water at 15 mg/mouse
# From the text: Samples of lymph nodes and liver from three animals in each treatment group were fixed in 4% paraformaldehyde in phosphate-buffered saline, sectioned, and stained with May Grunwald-Giemsa.
# circulating B cells = test: Flow cytometry of circulating lymphocytes; settings: after Fludara suspension
# From the text: Whole blood samples were stained with antimouse L3T4/CD4 fluorescein isothiocyanate (FITC) conjugated (Boehringer Mannheim Biochemica) for the detection of CD4^+ lymphocytes, antimouse Ly-2R phycoerythrin (PE) conjugated (Boehringer Mannheim Biochemica) for the detection of CD8a lymphocytes, antimouse Thy-1.2 FITC conjugated (Boehringer Mannheim Biochemica) for the detection of T cells, and antimouse Ly 5 (B220)-PE Monoclonal antibody (Cederlane, Ontario, Canada) for the detection of committed B cell precursors. Samples were analyzed by FACS (Becton Dickinson).
# [3] = 0.065 mg/mouse i.p. 3 days a week for 3 weeks
# [4] = 0.325 mg/mouse i.p. 3 days a week for 3 weeks
# [5] = 0.650 mg/mouse i.p. 3 days a week for 3 weeks
# [6] = group a: 3.0 mg i.p. once a day for 5 consecutive days, 4 weeks, after 7 weeks of infection
# [7] = group b: 3.0 mg i.p. twice a day for 5 consecutive days, 4 weeks, after 7 weeks of infection
# [8] = group c: 10 mg in drinking water for 5 consecutive days, 4 weeks, after 7 weeks of infection
# [9] = group d: 15 mg in drinking water for 5 consecutive days, 4 weeks, after 7 weeks of infection
# [10] = regime 1: 0.65 mg once a day 4 days/week for 3 weeks i.p., after 7 weeks of infection
# [11] = regime 2: 0.65 mg twice a day 5 days/week for 4 weeks i.p., after 7 weeks of infection
# [12] = regime 3: 3.00 mg once a day 5 days/week for 3 weeks i.p., after 7 weeks of infection
# [13] = treatment c: after 6 weeks of infection 3 mg F-ara-AMP i.p. twice a day, 5 consecutive days, 4 weeks, at 10 weeks after infection
# [14] = treatment g: after 6 weeks of infection 3 mg F-ara-AMP i.p. twice a day 4 weeks, then interrupted, at 14 weeks after infection
compound,measurement,setting,value
"Nc1nc(F)nc2c1ncn2[C@@H]1O[C@H](COP(=O)(O)O)[C@@H](O)[C@@H]1O [F-ara-AMP, Fludarabine phosphate]",Lymphad. (% inh.),LP-BM5 [1]; [3],20±15%
same,Splenom. (% inh.),LP-BM5 [1]; [3],0%
same,Lymphad. (% inh.),LP-BM5 [1]; [4],26±9%
same,Splenom. (% inh.),LP-BM5 [1]; [4],0%
same,Lymphad. (% inh.),LP-BM5 [1]; [5],49±6%
same,Splenom. (% inh.),LP-BM5 [1]; [5],0%
same,Lymph node w.,LP-BM5 [1]; [6],0.54 ± 0.32 g
same,Spleen w.,LP-BM5 [1]; [6],0.50 ± 0.25 g
same,Lymph node w.,LP-BM5 [1]; [7],0.05 ± 0.02 g
same,Spleen w.,LP-BM5 [1]; [7],0.22 ± 0.06 g
same,Lymph node w.,LP-BM5 [1]; [8],0.16 ± 0.16 g
same,Spleen w.,LP-BM5 [1]; [8],0.31 ± 0.09 g
same,Lymph node w.,LP-BM5 [1]; [9],0.28 ± 0.23 g
same,Spleen w.,LP-BM5 [1]; [9],0.28 ± 0.13 g
same,Lymph node w.,LP-BM5 [1]; [10],2.63 ± 0.57 g
same,Spleen weight,LP-BM5 [1]; [10],1.01 ± 0.24 g
same,Lymph node w.,LP-BM5 [1]; [11],2.11 ± 0.54 g
same,Spleen weight,LP-BM5 [1]; [11],0.87 ± 0.20 g
same,Lymph node w.,LP-BM5 [1]; [12],1.75 ± 0.53 g
same,Spleen weight,LP-BM5 [1]; [12],0.84 ± 0.17 g
same,Lymph node w.,LP-BM5 [1]; [13],0.042 ± 0.018 g
same,Spleen w.,LP-BM5 [1]; [13],0.130 ± 0.004 g
same,Lymph node w.,LP-BM5 [1]; [14],0.290 ± 0.05 g
same,Spleen w.,LP-BM5 [1]; [14],0.41 ± 0.200 g
same,reduction of mitochondrial DNA content,mitochondrial DNA,20%
same,toxicity in the liver (necrotic cells),LP-BM5 [2],some toxicity
same,number of circulating B cells after suspension of administration,circulating B cells,returns to normal values
